{"source": "PubChem BioAssay (NCI)", "experiment_in_all_cases": "NCI-60 cell line screen, 48 h", "key": {"MCF7 breast": {"system": "MCF7 breast"}, "NCI-H522 lung": {"system": "NCI-H522 lung"}, "HL-60(TB) leukemia": {"system": "HL-60(TB) leukemia"}, "SF-268 CNS": {"system": "SF-268 CNS"}, "SNB-19 CNS": {"system": "SNB-19 CNS"}, "EKVX NSCLC": {"system": "EKVX NSCLC"}, "COLO 205 colon": {"system": "COLO 205 colon"}, "IGROV1 ovarian": {"system": "IGROV1 ovarian"}, "LOX IMVI melanoma": {"system": "LOX IMVI melanoma"}, "MOLT-4 leukemia": {"system": "MOLT-4 leukemia"}, "CCRF-CEM leukemia": {"system": "CCRF-CEM leukemia"}, "SNB-75 CNS": {"system": "SNB-75 CNS"}, "MDA-N": {"system": "MDA-N"}, "HOP-92 NSCLC": {"system": "HOP-92 NSCLC"}, "NCI-H23 lung": {"system": "NCI-H23 lung"}, "MALME-3M melanoma": {"system": "MALME-3M melanoma"}, "CAKI-1 renal": {"system": "CAKI-1 renal"}, "U251 CNS": {"system": "U251 CNS"}, "A498 renal": {"system": "A498 renal"}, "RXF 393 renal": {"system": "RXF 393 renal"}, "MDA-MB-231 breast": {"system": "MDA-MB-231 breast"}, "MDA-MB-435": {"system": "MDA-MB-435"}, "SK-MEL-2 melanoma": {"system": "SK-MEL-2 melanoma"}, "PC-3 prostate": {"system": "PC-3 prostate"}, "SK-MEL-28 melanoma": {"system": "SK-MEL-28 melanoma"}, "UACC-62 melanoma": {"system": "UACC-62 melanoma"}, "NCI-H226 lung": {"system": "NCI-H226 lung"}, "NCI/ADR-RES ovarian": {"system": "NCI/ADR-RES ovarian"}, "HCC-2998 colon": {"system": "HCC-2998 colon"}, "A549 NSCLC": {"system": "A549 NSCLC"}, "HOP-62 NSCLC": {"system": "HOP-62 NSCLC"}, "SK-MEL-5 melanoma": {"system": "SK-MEL-5 melanoma"}, "SW-620 colon": {"system": "SW-620 colon"}, "HCT-116 colon": {"system": "HCT-116 colon"}, "UO-31 renal": {"system": "UO-31 renal"}, "OVCAR-8 ovarian": {"system": "OVCAR-8 ovarian"}, "RPMI-8226 leukemia": {"system": "RPMI-8226 leukemia"}, "HCT-15 colon": {"system": "HCT-15 colon"}, "KM12 colon": {"system": "KM12 colon"}, "HS 578T breast": {"system": "HS 578T breast"}, "T-47D breast": {"system": "T-47D breast"}, "SK-OV-3 ovarian": {"system": "SK-OV-3 ovarian"}, "BT-549 breast": {"system": "BT-549 breast"}, "OVCAR-5 ovarian": {"system": "OVCAR-5 ovarian"}, "TK-10 renal": {"system": "TK-10 renal"}, "OVCAR-3 ovarian": {"system": "OVCAR-3 ovarian"}, "UACC-257 melanoma": {"system": "UACC-257 melanoma"}, "ACHN renal": {"system": "ACHN renal"}, "DU-145 prostate": {"system": "DU-145 prostate"}, "M14 melanoma": {"system": "M14 melanoma"}, "HT29 colon": {"system": "HT29 colon"}, "OVCAR-4 ovarian": {"system": "OVCAR-4 ovarian"}, "786-0 renal": {"system": "786-0 renal"}, "SR leukemia": {"system": "SR leukemia"}, "SF-539 CNS": {"system": "SF-539 CNS"}, "K-562 leukemia": {"system": "K-562 leukemia"}, "SN12C renal": {"system": "SN12C renal"}, "SF-295 CNS": {"system": "SF-295 CNS"}, "NCI-H460 lung": {"system": "NCI-H460 lung"}}, "note": "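A five-concentration, 48-hour dose response in 96-well plates underlies each endpoint, interpolated linearly between surrounding concentrations. At the TGI there is no net growth.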"}
{"compound": "COc1ccc2nc3ccc(OC)cc3c(SCCCl)c2c1", "values": [{"measurement": "TGI", "setting": "MCF7 breast", "result": "> 47", "unit": "µM"}, {"measurement": "TGI", "setting": "NCI-H522 lung", "result": "> 100", "unit": "µM"}, {"measurement": "TGI", "setting": "HL-60(TB) leukemia", "result": "> 21.1", "unit": "µM"}, {"measurement": "TGI", "setting": "SF-268 CNS", "result": "> 100", "unit": "µM"}, {"measurement": "TGI", "setting": "SNB-19 CNS", "result": "> 85.5", "unit": "µM"}, {"measurement": "TGI", "setting": "EKVX NSCLC", "result": "> 100", "unit": "µM"}, {"measurement": "TGI", "setting": "COLO 205 colon", "result": "> 72.3", "unit": "µM"}, {"measurement": "TGI", "setting": "IGROV1 ovarian", "result": "> 100", "unit": "µM"}, {"measurement": "TGI", "setting": "LOX IMVI melanoma", "result": 21.3, "unit": "µM"}, {"measurement": "TGI", "setting": "MOLT-4 leukemia", "result": 16.4, "unit": "µM"}, {"measurement": "TGI", "setting": "CCRF-CEM leukemia", "result": 16, "unit": "µM"}, {"measurement": "TGI", "setting": "SNB-75 CNS", "result": "> 96.8", "unit": "µM"}, {"measurement": "TGI", "setting": "MDA-N", "result": "> 100", "unit": "µM"}, {"measurement": "TGI", "setting": "HOP-92 NSCLC", "result": "> 42.2", "unit": "µM"}, {"measurement": "TGI", "setting": "NCI-H23 lung", "result": "> 100", "unit": "µM"}, {"measurement": "TGI", "setting": "MALME-3M melanoma", "result": "> 100", "unit": "µM"}, {"measurement": "TGI", "setting": "CAKI-1 renal", "result": 66.8, "unit": "µM"}, {"measurement": "TGI", "setting": "U251 CNS", "result": "> 100", "unit": "µM"}, {"measurement": "TGI", "setting": "A498 renal", "result": "> 91.5", "unit": "µM"}, {"measurement": "TGI", "setting": "RXF 393 renal", "result": "> 48.1", "unit": "µM"}, {"measurement": "TGI", "setting": "MDA-MB-231 breast", "result": 99.3, "unit": "µM"}, {"measurement": "TGI", "setting": "MDA-MB-435", "result": "> 49.5", "unit": "µM"}, {"measurement": "TGI", "setting": "SK-MEL-2 melanoma", "result": "> 85.1", "unit": "µM"}, {"measurement": "TGI", "setting": "PC-3 prostate", "result": "> 100", "unit": "µM"}, {"measurement": "TGI", "setting": "SK-MEL-28 melanoma", "result": "> 100", "unit": "µM"}, {"measurement": "TGI", "setting": "UACC-62 melanoma", "result": "> 77.6", "unit": "µM"}, {"measurement": "TGI", "setting": "NCI-H226 lung", "result": "> 100", "unit": "µM"}, {"measurement": "TGI", "setting": "NCI/ADR-RES ovarian", "result": "> 58.7", "unit": "µM"}, {"measurement": "TGI", "setting": "HCC-2998 colon", "result": "> 100", "unit": "µM"}, {"measurement": "TGI", "setting": "A549 NSCLC", "result": "> 100", "unit": "µM"}, {"measurement": "TGI", "setting": "HOP-62 NSCLC", "result": "> 78.3", "unit": "µM"}, {"measurement": "TGI", "setting": "SK-MEL-5 melanoma", "result": "> 100", "unit": "µM"}, {"measurement": "TGI", "setting": "SW-620 colon", "result": "> 100", "unit": "µM"}, {"measurement": "TGI", "setting": "HCT-116 colon", "result": "> 43.5", "unit": "µM"}, {"measurement": "TGI", "setting": "UO-31 renal", "result": "> 100", "unit": "µM"}, {"measurement": "TGI", "setting": "OVCAR-8 ovarian", "result": "> 35.2", "unit": "µM"}, {"measurement": "TGI", "setting": "RPMI-8226 leukemia", "result": 10.6, "unit": "µM"}, {"measurement": "TGI", "setting": "HCT-15 colon", "result": "> 100", "unit": "µM"}, {"measurement": "TGI", "setting": "KM12 colon", "result": "> 71", "unit": "µM"}, {"measurement": "TGI", "setting": "HS 578T breast", "result": "> 100", "unit": "µM"}, {"measurement": "TGI", "setting": "T-47D breast", "result": "> 97.2", "unit": "µM"}, {"measurement": "TGI", "setting": "SK-OV-3 ovarian", "result": "> 100", "unit": "µM"}, {"measurement": "TGI", "setting": "BT-549 breast", "result": "> 100", "unit": "µM"}, {"measurement": "TGI", "setting": "OVCAR-5 ovarian", "result": "> 40.8", "unit": "µM"}, {"measurement": "TGI", "setting": "TK-10 renal", "result": "> 100", "unit": "µM"}, {"measurement": "TGI", "setting": "OVCAR-3 ovarian", "result": "> 100", "unit": "µM"}, {"measurement": "TGI", "setting": "UACC-257 melanoma", "result": "> 100", "unit": "µM"}, {"measurement": "TGI", "setting": "ACHN renal", "result": "> 100", "unit": "µM"}, {"measurement": "TGI", "setting": "DU-145 prostate", "result": "> 65", "unit": "µM"}, {"measurement": "TGI", "setting": "M14 melanoma", "result": "> 21.3", "unit": "µM"}, {"measurement": "TGI", "setting": "HT29 colon", "result": "> 52.4", "unit": "µM"}, {"measurement": "TGI", "setting": "OVCAR-4 ovarian", "result": "> 85", "unit": "µM"}, {"measurement": "TGI", "setting": "786-0 renal", "result": 30.1, "unit": "µM"}, {"measurement": "TGI", "setting": "SR leukemia", "result": 15.6, "unit": "µM"}, {"measurement": "TGI", "setting": "SF-539 CNS", "result": "> 50.5", "unit": "µM"}, {"measurement": "TGI", "setting": "K-562 leukemia", "result": "> 46.5", "unit": "µM"}, {"measurement": "TGI", "setting": "SN12C renal", "result": "> 100", "unit": "µM"}, {"measurement": "TGI", "setting": "SF-295 CNS", "result": "> 100", "unit": "µM"}, {"measurement": "TGI", "setting": "NCI-H460 lung", "result": "> 100", "unit": "µM"}]}
